Source: patent US9102678B2, “Compounds and methods for inhibiting mitotic progression” (Millennium Pharmaceuticals, Inc., priority 2004, dated 2015)

Biological target: T1, recombinant murine Aurora A enzyme (Mus musculus, UniProt P97477)
T1 construct: hexahistidine (His6) (N); made in house; host or cells: insect cells, baculovirus (Bac-to-Bac, Invitrogen)
Assay: Aurora A DELFIA Kinase Assay
Format: biochemical
Details: mouse Aurora A, 250 μM ATP; threshold less than or equal to 100 nM; read-out: IC50
Description: Recombinant mouse Aurora A with an amino-terminus hexahistidine tag (His-Aurora A) was expressed using a standard baculovirus vector and insect cell expression system (Bac-to-Bac®, Invitrogen).
Soluble, recombinant mouse Aurora A was purified from insect cells using Ni-NTA agarose (Qiagen) as described by the manufacturer and further purified over an S75 size exclusion column (Amersham Pharmacia Biotech).
Aurora A DELFIA® Kinase Assay
The enzymatic reaction mixture, with and without Aurora inhibitors, was incubated for 15 minutes at room temperature before termination with 100 μL of stop buffer (1% BSA, 0.05% Surfact-AMPS-20, and 100 mM EDTA). A total of 100 μL of the enzyme reaction mixture was transferred to wells of a Neutravidin-coated 96-well plate (Pierce) and incubated at room temperature for 30 minutes. The wells were washed with wash buffer (25 mM Tris, 150 mM sodium chloride, and 0.1% Tween 20) and incubated for 1 hour with 100 μL of antibody reaction mixture containing 1% BSA, 0.05% Surfact-AMPS-20, anti-phospho-PKA rabbit polyclonal antibody (1:2000, New England Biolabs), and europium labeled anti-rabbit IgG (1:2000, Perkin Elmer). The wells were washed and then the bound europium was liberated using 100 μL of Enhancement Solution (Perkin Elmer). Quantification of europium was done using a Wallac™ EnVision (Perkin Elmer).

T1 sequence (P97477 whole entry): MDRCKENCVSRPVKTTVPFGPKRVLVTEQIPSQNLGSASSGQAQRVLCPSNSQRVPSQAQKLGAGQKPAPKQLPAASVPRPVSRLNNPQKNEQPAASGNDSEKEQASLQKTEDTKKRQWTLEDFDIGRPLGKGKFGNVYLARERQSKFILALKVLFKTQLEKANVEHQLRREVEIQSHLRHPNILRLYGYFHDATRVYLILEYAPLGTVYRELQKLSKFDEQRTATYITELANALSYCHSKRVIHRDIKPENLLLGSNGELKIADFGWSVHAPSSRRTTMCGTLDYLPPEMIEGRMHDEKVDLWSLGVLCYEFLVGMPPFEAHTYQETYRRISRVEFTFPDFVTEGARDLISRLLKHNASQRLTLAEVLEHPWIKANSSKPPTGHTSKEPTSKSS

| Structure (SMILES) | IC50 [nM] |
| --- | --- |
| CNC1CCN(C(=O)c2ccc(Nc3ncc4c(n3)-c3ccc(Cl)cc3C(c3c(F)cccc3Cl)=NC4)cc2)C1 (centres unmarked) [Compound I-327, 9-chloro-7-(2-chloro-6-fluorophenyl)-N-(4-{[3-(methylamino)pyrrolidin-1-yl]carbonyl}phenyl)-5H-pyrimido[5,4-d][2]benzazepin-2-amine] | ≤ 100 |
| CC1CN(C(=O)c2ccc(Nc3ncc4c(n3)-c3ccc(Cl)cc3C(c3c(F)cccc3F)=NC4)cc2)CC(C)N1 (centres unmarked) [Compound I-175, 9-Chloro-7-(2,6-difluorophenyl)-N-{4-[(3,5-dimethylpiperazin-1-yl)carbonyl]phenyl}-5H-pyrimido[5,4-d][2]benzazepin-2-amine] | ≤ 100 |
| CC1CN(C(=N)c2ccc(Nc3ncc4c(n3)-c3ccc(Cl)cc3C(c3c(F)cccc3F)=NC4)cc2)CC(C)N1 (centres unmarked) [Compound I-251, [9-Chloro-7-(2,6-difluoro-phenyl)-5H-benzo[c]pyrimido[4,5-e]azepin-2-yl]-{4-[(3,5-dimethyl-piperazin-1-yl)-imino-methyl]-phenyl}-amine] | ≤ 100 |
| CC(C)(N)CNC(=O)c1ccc(Nc2ncc3c(n2)-c2ccc(Cl)cc2C(c2c(F)cccc2F)=NC3)cc1 [Compound I-260, N-(2-amino-2-methylpropyl)-4-{[9-chloro-7-(2,6-difluorophenyl)-5H-pyrimido[5,4-d][2]benzazepin-2-yl]amino}benzamide] | ≤ 100 |
| Cc1ccc2c(c1)C(c1ccccc1F)=NCc1cnc(Nc3ccc(C(=O)N4CCN(C)CC4)cc3)nc1-2 [Compound I-14, {4-[7-(2-Fluoro-phenyl)-9-methyl-5H-benzo[c]pyrimido[4,5-e]azepin-2-ylamino]-phenyl}-(4-methyl-piperazin-1-yl)-methanone] | ≤ 100 |
| CNC1CCCN(C(=O)c2ccc(Nc3ncc4c(n3)-c3ccc(Cl)cc3C(c3c(F)cccc3OC)=NC4)cc2)C1 (centres unmarked) [Compound I-263, 9-chloro-7-(2-fluoro-6-methoxyphenyl)-N-(4-{[3-(methylamino)piperidin-1-yl]carbonyl}phenyl)-5H-pyrimido[5,4-d][2]benzazepin-2-amine] | ≤ 100 |
| CN(C)C1CCN(C(=O)c2ccc(Nc3ncc4c(n3)-c3ccc(Cl)cc3C(c3ccccc3F)=NC4)cc2)C1 (centres unmarked) [Compound I-100, {4-[9-Chloro-7-(2-fluoro-phenyl)-5H-benzo[c]pyrimido[4,5-e]azepin-2-ylamino]-phenyl}-(3-dimethylamino-pyrrolidin-1-yl)-methanone] | ≤ 100 |
| CNC1CCCN(C(=O)c2ccc(Nc3ncc4c(n3)-c3ccc(Cl)cc3C(c3c(F)cccc3Cl)=NC4)cc2)C1 (centres unmarked) [Compound I-326, 9-chloro-7-(2-chloro-6-fluorophenyl)-N-(4-{[3-(methylamino)piperidin-1-yl]carbonyl}phenyl)-5H-pyrimido[5,4-d][2]benzazepin-2-amine] | ≤ 100 |
| COc1cccc(F)c1C1=NCc2cnc(Nc3cccc(C(=O)N4CC(C)NC(C)C4)c3)nc2-c2ccc(Cl)cc21 (centres unmarked) [Compound I-228, 9-chloro-N-{3-[(3,5-dimethylpiperazin-1-yl)carbonyl]phenyl}-7-(2-fluoro-6-methoxyphenyl)-5H-pyrimido[5,4-d][2]benzazepin-2-amine] | ≤ 100 |
| CNCCCNC(=O)c1ccc(Nc2ncc3c(n2)-c2ccc(Cl)cc2C(c2ccccc2F)=NC3)cc1 [Compound I-130, 4-[9-Chloro-7-(2-fluoro-phenyl)-5H-benzo[c]pyrimido[4,5-e]azepin-2-ylamino]-N-(3-methylamino-propyl)-benzamide] | ≤ 100 |
| COc1ccccc1C1=NCc2cnc(Nc3ccc(C(=O)N4CC(C)NC(C)C4)cc3)nc2-c2ccc(Cl)cc21 (centres unmarked) [Compound I-330] | ≤ 100 |
| CNC1CCN(C(=O)c2cc(Nc3ncc4c(n3)-c3ccc(Cl)cc3C(c3c(F)cccc3F)=NC4)ccc2Cl)CC1 [Compound I-282, 9-chloro-N-(4-chloro-3-{[4-(methylamino)piperidin-1-yl]carbonyl}phenyl)-7-(2,6-difluorophenyl)-5H-pyrimido[5,4-d][2]benzazepin-2-amine] | ≤ 100 |
| CN(C)C1CN(C(=N)c2ccc(Nc3ncc4c(n3)-c3ccc(Cl)cc3C(c3c(F)cccc3F)=NC4)cc2)C1 [Compound I-267, 9-chloro-7-(2,6-difluorophenyl)-N-{4-[[3-(dimethylamino)azetidin-1-yl](imino)methyl]phenyl}-5H-pyrimido[5,4-d][2]benzazepin-2-amine] | ≤ 100 |
| CN(C)CCN(C)C(=O)c1ccc(Nc2ncc3c(n2)-c2ccc(Cl)cc2C(c2ccccc2F)=NC3)cc1 [Compound I-5, 4-[9-Chloro-7-(2-fluoro-phenyl)-5H-benzo[c]pyrimido[4,5-e]azepin-2-ylamino]-N-(2-dimethylamino-ethyl)-N-methyl-benzamide] | ≤ 100 |
| O=C(O)C1CCCN1C(=O)c1ccc(Nc2ncc3c(n2)-c2ccc(Cl)cc2C(c2ccccc2F)=NC3)cc1 (centres unmarked) [Compound I-112, 1-{4-[9-Chloro-7-(2-fluoro-phenyl)-5H-benzo[c]pyrimido[4,5-e]azepin-2-ylamino]-benzoyl}-pyrrolidine-2-carboxylic acid] | ≤ 100 |
| NC1CCN(C(=O)c2ccc(Nc3ncc4c(n3)-c3ccc(Cl)cc3C(c3ccccn3)=NC4)cc2)CC1 [Compound I-298, N-{4-[(4-aminopiperidin-1-yl)carbonyl]phenyl}-9-chloro-7-pyridin-2-yl-5H-pyrimido[5,4-d][2]benzazepin-2-amine] | ≤ 100 |
| COc1cccc(F)c1C1=NCc2cnc(Nc3ccc(C(=O)N4CC(N)C4)cc3)nc2-c2ccc(Cl)cc21 [Compound I-286] | ≤ 100 |
| CN1CCN(CCCNC(=O)c2ccc(Nc3ncc4c(n3)-c3ccc(Cl)cc3C(c3ccccc3F)=NC4)cc2)CC1 [Compound I-19, 4-[9-Chloro-7-(2-fluoro-phenyl)-5H-benzo[c]pyrimido[4,5-e]azepin-2-ylamino]-N-[3-(4-methyl-piperazin-1-yl)-propyl]-benzamide] | ≤ 100 |
| COc1cccc(F)c1C1=NCc2cnc(Nc3ccc(C(=O)N4CCCC(N)C4)cc3)nc2-c2ccc(Cl)cc21 (centres unmarked) [Compound I-262] | ≤ 100 |
| N=C(c1ccc(Nc2ncc3c(n2)-c2ccc(Cl)cc2C(c2c(F)cccc2F)=NC3)cc1)N1CCC(N)C1 (centres unmarked) [Compound I-284] | ≤ 100 |
| COc1cccc(F)c1C1=NCc2cnc(Nc3ccc(C(=O)N(C)CCCN(C)C)cc3)nc2-c2ccc(Cl)cc21 [Compound I-225, 4-{[9-chloro-7-(2-fluoro-6-methoxyphenyl)-5H-pyrimido[5,4-d][2]benzazepin-2-yl]amino}-N-[3-(dimethylamino)propyl]-N-methylbenzamide] | ≤ 100 |
| NC1CCN(C(=O)c2ccc(Nc3ncc4c(n3)-c3ccc(Cl)cc3C(c3c(F)cccc3F)=NC4)cc2)C1 (centres unmarked) [Compound I-196, (3-Amino-pyrrolidin-1-yl)-{4-[9-chloro-7-(2,6-difluoro-phenyl)-5H-benzo[c]pyrimido[4,5-e]azepin-2-ylamino]-phenyl}-methanone] | ≤ 100 |
| O=C(NC1CCNCC1)c1ccc(Nc2ncc3c(n2)-c2ccc(Cl)cc2C(c2ccccc2F)=NC3)cc1 [Compound I-16, 4-[9-Chloro-7-(2-fluoro-phenyl)-5H-benzo[c]pyrimido[4,5-e]azepin-2-ylamino]-N-piperidin-4-yl-benzamide] | ≤ 100 |
